Measured values published in patent US9988423B2, “Organogels and emulsions for biological and non-biological applications” (Agency for Science, Technology and Research, priority 2012, dated 2018).
Residues, ends and D or L forms follow the SMILES beside them. No end group written: not given here.

What was measured:
[1] = Stability of peptide emulsions in oil:water mixtures (phase separation); format: physicochemical; conditions: 7.5 mg/ml peptide in oil:water 50:50, 80:20, 20:80; in comparison to controls
Procedure: 7.5 mg/ml Ac-IVD-COOH (L) were dissolved in solvent mixtures of oil:water (50:50, 80:20, 20:80).

[2] = Organogel formation (gelation) of peptides in organic solvents; format: physicochemical
Procedure: The exemplary peptides are Ac-ID-COOH (L) (dimer), Ac-IVD-COOH (L) (trimer) and Ac-LIVAGD-COOH (L) (hexamer). The organogels depicted in (C) are (1) Ac-ID-COOH (L) 10 mg/ml in ethyl acetate, (2) Ac-ID-COOH (L) 10 mg/ml in toluene, (3) Ac-IVD-COOH (L) 2 mg/ml in acetonitrile, (4) Ac-IVD-COOH (L) 2 mg/ml in ethyl acetate, (5) Ac-IVD-COOH (L) 5 mg/ml in acetone, (6) Ac-LIVAGD-COOH (L) 5 mg/ml in toluene, and (7) Ac-LIVAGD-COOH (L) 10 mg/ml in ethyl acetate.
The organogels depicted in (B) are (1) Ac-IVF-COOH (L) 5 mg/ml in ethyl acetate, (2) Ac-IVF-COOH (L) 5 mg/ml in acetone, (3) Ac-IVF-COOH (L) 5 mg/ml in acetonitrile, (4) Ac-IVF-COOH (L) 5 mg/ml in chloroform, (5) Ac-IVW-COOH (L) 5 mg/ml in acetone, (6) Ac-IVW-COOH (L) 5 mg/ml in ethyl acetate, and (7) Ac-LIVAGF-COOH (L) 5 mg/ml in acetone.
Gels with increasing concentration of Ac-IVD-COOH (L) were prepared in ethyl acetate. […] Organogels of 2 mg/ml and 5 mg/ml Ac-IVD-COOH (L) in ethyl acetate were analyzed by field emission scanning electron microscopy (FESEM). FIGS. 3B and 3C show the effect of the peptide concentration on organogelation for the hexamer Ac-LIVAGD-COOH (L) in acetonitrile or ethyl acetate.
The formulation of the peptide organogels depends on several factors, such as peptide concentration, polarity of the organic solvent, peptide sequence and type of solvent used (see FIG. 3 as well as FIGS. 10A-G and 11). For example, increasing the peptide concentration reduced the gelation time for the formulation of peptide organogels. Based on the experimental data disclosed herein and his general knowledge, a person skilled in the art would have no problems in figuring out suitable gelation conditions (e.g. a suitable organic solvent) for a given peptide. For example, a skilled person knows about the nature of an organic solvent with respect to its polarity or non-polarity. […] Obviously, there is interaction with the polar head group of the peptide. […] Also, it seems that planar configurations (benzene ring, C═O, nitrile) within the solvent helps to stabilize the gel. This might be explained with a more favourable interaction of p-, sp^2-, or sp-orbitals.

Row | Compound | phase separation of emulsion [1] | effect of peptide concentration on organogelation ([2]; in ethyl acetate, concentrations above 10 mg/ml (1% w/v)) | organogel formation in organic solvents [2] | preferred gelation solvent ([2]; screening for quantum dot loading) | effect of peptide concentration on organogelation ([2]; in acetonitrile, increasing concentration 1-20 mg/ml) | effect of peptide concentration on organogelation ([2]; in ethyl acetate, increasing concentration 5, 10, 20 mg/ml)
1 | CC[C@H](C)[C@H](NC(C)=O)C(=O)N[C@H](C(=O)N[C@@H](CC(=O)O)C(=O)O)C(C)C [Ac-IVD-COOH (L)] (Ac-Ile-Val-Asp-OH) | No phase separation | only partial gelation | formed organogels | gelled preferably in ethyl acetate |  | 
2 | CC[C@H](C)[C@H](NC(C)=O)C(=O)N[C@H](C(=O)N[C@@H](Cc1ccccc1)C(=O)O)C(C)C [Ac-IVF-COOH (L)] |  |  | formed organogels |  |  | 
3 | CC[C@H](C)[C@H](NC(C)=O)C(=O)N[C@H](C(=O)N[C@@H](Cc1c[nH]c2ccccc12)C(=O)O)C(C)C [Ac-IVW-COOH (L)] (Ac-Ile-Val-Trp-OH) |  |  | formed organogels |  |  | 
4 | Ac-LIVAGD [Ac-LIVAGD-COOH (L)] |  |  | formed organogels |  | increased size of the organogel | partial gelation
